# Read-outs that look alike come from different tables or passages of the source.
# What was measured:
# Format in all cases: cell-based
# [1] = test system: Enterococcus faecalis ATCC 29212; test: MIC by microdilution in liquid medium (CLSI / CA-SFM); details: ATCC29212, E. faecalis ATCC 29212, reference strain, read-out: MIC
# Text: (§1) According to the joint recommendations: • of the “Comite de l′Antibiogramme de la Société Française de Microbiologie” (Antibiogram Committee of the French Society of Microbiology) (CA-SFM) [CA-SFM. Communique 2007 (Edition of January 2007). http://www.sfm.asso.fr] and, • of the “Clinical and Laboratory Standards Institute” (CLSI, formerly “National Committee for Clinical Laboratory Standards” or NCCLS) [NCCLS. 2003. Methods for dilution antimicrobial susceptibility tests for bacteria that grow aerobically; approved standard M7-A6, 6th ed. National Committee for Clinical Laboratory Standards, Wayne, Pa., USA.], five reference bacterial strains were used for the study: Escherichia coli ATCC 25922, Pseudomonas aeruginosa ATCC 27853, Staphylococcus aureus ATCC 25923 & ATCC 29213 and Enterococcus faecalis ATCC 29212.
# (§2) The bacteria are cultivated either on Mueller-Hinton agar (Difco, 225250), or in Mueller-Hinton broth (Difco, 275730), at 35° C. [Grare M, Mourer M, Fontanay S, Regnouf-de-Vains J B, Finance C, Duval R E. In vitro activity of para-guanidinoethylcalix[4]arene against susceptible and antibiotic-resistant Gram-negative and Gram-positive bacteria. J. Antimicrob Chemother. 2007; 60: 575-81].
# (§3) The various molecules tested were prepared in the form of aqueous solution at 10^−2 mol/L. The solutions used for the biological tests are freshly prepared, and stored for a week at most, at 4° C. The solutions are filtered through a filter with pores of 0.22 μm (Millex®GP; 0.22 μm; Millipore; France) before each test.
# (§4) Procedure for determining the Minimum Inhibitory Concentration (MIC)
# (§5) The minimum inhibitory concentrations (MIC) were determined by the standardized method of microdilution in liquid medium (96-well microplate, U-shaped bottom, Greiner), in Mueller-Hinton broth, with a final inoculum of 10^5-10^6 CFU/mL, depending on the bacterial species, in accordance with the recommendations of the CLSI.
# (§6) For the determination of MIC, bacterial suspensions are prepared from an isolated colony, taken from a Mueller-Hinton agar, taken up in 5 mL of Mueller-Hinton broth. After 24 h of growth, the bacterial suspensions are diluted in sterile distilled water in order to obtain an inoculum of 10^5-10^6 CFU/mL. The purity of the bacterial suspensions is tested by isolation on agar and Gram staining.
# (§7) The results are the mean value of 4 independent experiments.
# [2] = test system: Escherichia coli ATCC 25922; test: as above
# Text: as §1, §2, §3, §4, §5, §6, §7
# [3] = test system: Pseudomonas aeruginosa ATCC 27853; test: as above; details: ATCC27853, P. aeruginosa ATCC 27853, reference strain, read-out: MIC
# Text: as §1, §2, §3, §4, §5, §6, §7
# [4] = test system: Staphylococcus aureus ATCC 25923; test: as above
# Text: as §1, §2, §3, §4, §5, §6, §7
# [5] = test system: Staphylococcus aureus ATCC 29213; test: as above; details: Staphylococcus aureus, ATCC29213, S. aureus ATCC 29213, reference strain; read-out: MIC
# Text: as §1, §2, §3, §4, §5, §6, §7
# [6] = test system: Gram-positive and Gram-negative bacteria (reference strains and clinical isolates); test: Antibacterial activity overall (MIC determination); details: summary of MIC results
# Text: as §1
# The study also included 5 clinical isolates, obtained from rectal samples and/or from haemoculture: • […] E. coli (EcR1), • methicillin-resistant S. aureus (mecA gene) (SaR1), • vancomycin-resistant E. faecium (vanB gene) (EfR1), • E. faecalis resistant to teicoplanin and to vancomycin (vanA gene) (EfR2), and • P. aeruginosa overexpressing an efflux pump (PaRl).
# as §4, §5, §6, §7
# [7] = Escherichia coli, ATCC25922, E. coli ATCC 25922, reference strain, read-out: MIC
# [8] = Staphylococcus aureus, ATCC25923, S. aureus ATCC 25923, reference strain, read-out: MIC
# [9] = S. aureus ATCC 25923, reference strain
MIC [1] [µg/mL],"MIC [2, 7] [µg/mL]",MIC [3] [µg/mL],"MIC [4, 8] [µg/mL]",MIC [5] [µg/mL],"MIC [4, 9]","MIC ([2]; E. coli ATCC 25922, reference strain)",SMILES,antibacterial activity (in words) [6]
32,64,64,–,–,–,–,"N=C(N)CCc1ccc(OCCCCCCCOc2ccc(CCC(=N)N)cc2)cc1 [compound 107, 1,7-bis(4-(2-(amidino)ethyl)phenoxy)heptane]",–
< 1,1 to 2,8,< 1,< 1,–,–,"N=C(N)NCCc1ccc(OCCCCCCCCCCOc2ccc(CCNC(=N)N)cc2)cc1 [compound 10, 1,10-bis(4-(2-guanidinoethyl)phenoxy)decane]",–
8,32,16,2,–,4 (1) mg/L,–,"N=C(N)CCc1ccc(OCCCCCCCCOc2ccc(CCC(=N)N)cc2)cc1 [compound 108, 1,8-bis(4-(2-(amidino)ethyl)phenoxy)octane]",–
256,64,64,16,8,–,–,"N=C(N)NCCc1ccc(OCOc2ccc(CCNC(=N)N)cc2)cc1 [compound 1, 1,1-bis(4-(2-guanidinoethyl)phenoxy)methane]",–
32,32,32,4,2,2 (1) mg/L,–,"N=C(N)CCc1ccc(OCCCCCCOc2ccc(CCC(=N)N)cc2)cc1 [compound 106, 1,6-bis(4-(2-(amidino)ethyl)phenoxy)hexane]",–
8,4,16,1,1,–,–,"N=C(N)NCCc1ccc(OCCCCCCCOc2ccc(CCNC(=N)N)cc2)cc1 [compound 7, 1,7-bis(4-(2-guanidinoethyl)phenoxy)heptane]",–
256,64,64,2,2,–,–,"N=C(N)CCc1ccc(OCCCCOc2ccc(CCC(=N)N)cc2)cc1 [compound 104, 1,4-bis(4-(2-(amidino)ethyl)phenoxy)butane]",–
128,32,64,4,2,–,–,"N=C(N)NCCc1ccc(OCCCOc2ccc(CCNC(=N)N)cc2)cc1 [compound 3, 1,3-bis(4-(2-guanidinoethyl)phenoxy)propane]",–
64,32,64,2,1,–,–,"N=C(N)NCCc1ccc(OCCCCOc2ccc(CCNC(=N)N)cc2)cc1 [compound 4, 1,4-bis(4-(2-guanidinoethyl)phenoxy)butane]",–
2,4,16,1,1,–,8 (1) mg/L,"N=C(N)CCc1ccc(OCCCCCCCCCCOc2ccc(CCC(=N)N)cc2)cc1 [compound 110, 1,10-bis(4-(2-(amidino)ethyl)phenoxy)decane]",–
256,128,128,32,32,–,–,"N=C(N)CCc1ccc(OCCCOc2ccc(CCC(=N)N)cc2)cc1 [compound 103, 1,3-bis(4-(2-(amidino)ethyl)phenoxy)propane]",–

SMILES,MIC [1] [µg/mL],"MIC [2, 7] [µg/mL]",MIC [3] [µg/mL],"MIC [4, 8] [µg/mL]",MIC [5] [µg/mL],"MIC [4, 9]","MIC ([2]; E. coli ATCC 25922, reference strain)",antibacterial activity (in words) [6]
"N=C(N)NCCc1ccc(OCCCCCCCCCOc2ccc(CCNC(=N)N)cc2)cc1 [compound 9, 1,9-bis(4-(2-guanidinoethyl)phenoxy)nonane]",1 to 2,1,4,0.25,0.25,–,–,very good activities on the 5 reference strains tested
